{"source": "patent US10391089B2", "about": "“PRMT5 inhibitors and uses therof” (Epizyme, Inc., priority 2012, dated 2019)"}
{"tested_on": "symmetric di-methyl arginine in Z-138 cells", "assay": "Z-138 Methylation Assay (In Cell Western for symmetric di-methyl arginine and DNA content)", "type": "cell-based", "details": "Homo sapiens; Z-138 methylation In Cell Western; read-out: ICW EC50", "description": "[formula] [formula] Where top and bottom are the normally allowed to float, but may be fixed at 100 or 0 respectively in a 3-parameter fit. The Hill Coefficient normally allowed to float but may also be fixed at 1 in a 3-parameter fit. Y is the % inhibition and X is the compound concentration.\nRPMI/Glutamax medium, penicillin-streptomycin, heat inactivated fetal bovine serum, and D-PBS were purchased from Life Technologies, Grand Island, N.Y., USA. Odyssey blocking buffer, 800CW goat anti-rabbit IgG (H+L) antibody, and Licor Odyssey infrared scanner were purchased from Licor Biosciences, Lincoln, Nebr., USA. Symmetric di-methyl arginine antibody was purchased from EMD Millipore, Billerica, Mass., USA. 16% Paraformaldehyde was purchased from Electron Microscopy Sciences, Hatfield, Pa., USA.\nCell Treatment, in Cell Western (ICW) for Detection of Symmetric Di-Methyl Arginine and DNA Content.\nZ-138 cells were seeded in assay medium at a concentration of 50,000 cells per mL to a 384-well cell culture plate with 50 μL per well. Compound (100 nL) from 384 well source plates was added directly to 384 well cell plate. Plates were incubated at 37° C., 5% CO2 for 96 hours. […] Plates were incubated at room temperature for 30 minutes then incubated at 37° C., 5% CO2 for 5 hours. After the incubation, 40 μL per well of 8% paraformaldehyde in PBS (16% paraformaldahyde was diluted to 8% in PBS) was added to each plate and incubated for 30 minutes. […] Next 30 μL per well of Odyssey blocking buffer were added to each plate and incubated 1 hour at room temperature. Blocking buffer was removed and 20 μL per well of primary antibody was added (symmetric di-methyl arginine diluted 1:100 in Odyssey buffer with 0.1% Tween 20 (v/v)) and plates were incubated overnight (16 hours) at 4° C. Plates were washed 5 times with 100 μL per well of wash buffer. Next 20 μL per well of secondary antibody was added (1:200 800CW goat anti-rabbit IgG (H+L) antibody, 1:1000 DRAQ5 (Biostatus limited) in Odyssey buffer with 0.1% Tween 20 (v/v)) and incubated for 1 hour at room temperature. The plates were washed 5 times with 100 μL per well wash buffer then 1 time with 100 μL per well of water. Plates were allowed to dry at room temperature then imaged on the Licor Odyssey machine which measures integrated intensity at 700 nm and 800 nm wavelengths. Both 700 and 800 channels were scanned.\nFirst, the ratio for each well was determined by:\nEach plate included fourteen control wells of DMSO only treatment (minimum inhibition) as well as fourteen control wells for maximum inhibition treated with 3 μM of a reference compound (Background wells). The average of the ratio values for each control type was calculated and used to determine the percent inhibition for each test well in the plate. Reference compound was serially diluted three-fold in DMSO for a total of nine test concentrations, beginning at 3 μM. Percent inhibition was determined and IC50 curves were generated using triplicate wells per concentration of compound.", "units": {"EC50": "nM"}}
{"molecule": "CN1CCC(Oc2cncc(C(=O)NC[C@H](O)CN3CCc4ccccc4C3)c2)CC1", "note": "[Compound 288]", "EC50": "101 to 1000"}
{"molecule": "CS(=O)(=O)N1CCC(Oc2cncc(C(=O)NC[C@H](O)CN3CCc4ccccc4C3)c2)CC1", "note": "[Compound 290]", "EC50": "< 100"}
{"molecule": "O=C(NC[C@H](O)CN1CCc2ccccc2C1)c1cccc2ccccc12", "note": "[Compound 295]", "EC50": "101 to 1000"}
{"molecule": "O=C(NC[C@H](O)CN1CCc2ccccc2C1)c1cncc(NC2COC2)c1", "note": "[Compound 299]", "EC50": "< 100"}
{"molecule": "O=C(NC[C@H](O)CN1CCc2ccccc2C1)c1cncc(NC2CCN(CC(F)(F)F)C2)c1", "note": "(some centres unmarked) [Compound 303]", "EC50": "< 100"}
